Measured values as given in patent US9969755B2, “Photodynamic therapy photosensitizers” (The Royal Institution for the Advancement of …, priority 2016, dated 2018).
Where two headings read alike, the source gives them in different places.

What was measured:
[1] = Absorption and steady-state fluorescence, fluorescence quantum yield in acetonitrile; assay type: physicochemical
Method: Absorption spectra were recorded using a Hitachi U-2800 UV-vis-NIR spectrophotometer. Luminescence spectra were recorded using a PTI QuantaMaster spectrofluorimeter using 10×10 mm quartz cuvettes and corrected for detector sensitivity.
The steady-state fluorescence spectra were recorded between 500-800 nm (depending on each compound) upon exciting at the wavelength of the absorbance maxima. The excitation and emission slits were tuned according to the fluorescence quantum yield of each BODIPY (i.e. for compound 7 excitation slits were 5 nm and for compound 4 we used 2 nm). Fluorescence was recorded every 1 nm using 0.1 s integration time. For the Fluorescence lifetime measurements, the excitation rate was 10 MHz, and the detection frequency was less than 100 kHz. Photons were collected at the magic angle. The fluorescence decay traces were fit using FluoFit (Picoquant) software. For steady-state and time-resolved fluorescence measurements a quartz cuvette with a 10 mm path length was used and all the solutions were prepared in air equilibrated acetonitrile.
Quantum yields of fluorescence were measured using PM605 in acetonitrile as a reference. Absorption and emission spectra of PM605 and the dye of interest were measured in acetonitrile at five different concentrations. The integrated intensity versus absorbance were then plotted and fitted linearly. Relative quantum yields of fluorescence for the unknown with respect to the standard were obtained from equation 1, where φ, Δ, and n refer, respectively, to the quantum yield, the slope obtained from the above-mentioned plot, and the solvent refractive index for the unknown (x) or standard (st).

[2] = Time-resolved fluorescence (fluorescence lifetime, TCSPC); assay type: physicochemical; details: acetonitrile, room temperature
Method: Fluorescence lifetime measurements were carried out using a Picoquant Fluotime 200 time correlated single photon counting (TCSPC) setup employing an LDH-P-C-470 picosecond diode laser (Picoquant) with an excitation wavelength at 466 nm as the excitation source. The laser was controlled by a PDL 800 B picosecond laser driver from Picoquant. ^1HNMR spectra were recorded on a Bruker AV 400 instrument at 400 MHz. ^13CNMR spectra were recorder on a Varian VNMRS 500 instrument at 125 MHz. ESI mass spectra were measured on a Bruker maXis impact. Laser Flash Photolysis (LFP) experiments were carried out in a commercially available Luzchem 212 LFP setup provided with a Tektronix TDS 2000 digitizer for signal capture. A Nd:Yag laser (Continuum model Surelite I-10 using a second harmonic generators, model number SL-SHG-T1) was used for excitation at a wavelength of 532 nm. Phosphorescence experiments were recorded using a Cary Eclipse Fluorescence Spectrophotometer. Singlet Oxygen phosphorescence was recorded with a Hamamatsu NIR detector (peltier cooled at −62.8° C. operating at 800 V, coupled to a grating monochromator) upon excitation with a 532 nm Nd:YAG laser. A customized Luzchem Research LFP-111 system was employed to collect and process the data. The steady-state fluorescence spectra were recorded between 500-800 nm (depending on each compound) upon exciting at the wavelength of the absorbance maxima. The excitation and emission slits were tuned according to the fluorescence quantum yield of each BODIPY (i.e. for compound 7 excitation slits were 5 nm and for compound 4 we used 2 nm). Fluorescence was recorded every 1 nm using 0.1 s integration time. For the Fluorescence lifetime measurements, the excitation rate was 10 MHz, and the detection frequency was less than 100 kHz. Photons were collected at the magic angle. The fluorescence decay traces were fit using FluoFit (Picoquant) software. For steady-state and time-resolved fluorescence measurements a quartz cuvette with a 10 mm path length was used and all the solutions were prepared in air equilibrated acetonitrile.

[3] = Laser flash photolysis: triplet excited state decay and quenching; assay type: physicochemical
Method: The 500 mJ/pulse laser output was attenuated yielding 10 mJ laser pulses of 6 ns in duration. Samples were prepared in acetonitrile. The final absorbance of the BODIPY dyes was 0.1. The concentration was kept low to avoid triplet-triplet annihilation. Each sample was de-oxygenated by purging with argon gas for at least 30 min. Quartz cells containing 10×10 mm path length were used. The decay of the BODIPYs was monitored between 420-440 and 520-550 nm (depending the BODIPY) following the laser excitation. Samples were irradiated with a total of 6 laser shots to acquire the temporal evolution of ΔOD.
A second layer of control was subsequently tested via LFP studies, to monitor the extent to which the trap segment deactivates the triplet excited state of the photosensitizes. […] The two quenchers emulate the trap segments utilized in 7 and 8, respectively.

[4] = ^1O2 quantum yield, photooxidation of DMA (indirect method); assay type: physicochemical; details: consumption of dimethylanthracene, Rose Bengal standard, air equilibrated acetonitrile
Method: Solutions of 9,10-dimethylanthracene (DMA, 50 μM) and photosensitizers (compound 3-10) in air equilibrated acetonitrile were irradiated in 10 mm path length quartz cell (3 ml) with a Nd:Yag laser exciting at 532 nm. Laser excitation was performed at 10 Hz, providing one laser output for every discharge of the flashlamp. An irradiation time of 1 s is equivalent to 10 laser pulses. The energy of each pulse was 10 mJ. The kinetics of DMA photooxidation were studied by following the decrease of the absorbance at λ=377 nm. The observed rate constant (kobs) was obtained by a linear least-squares fit of the semilogarithmic plot of ln [DMA]0/[DMA] (see FIG. 14). Quantum yields of ^1O2 production (φΔ^I) were calculated comparing the kobs=kq [^1O2] for the corresponding photosensitizer with that for Rose Bengal, which was used as a reference (φΔ=0.54).^1 Measurements of the sample and the reference under the same conditions afforded φΔ^I for compounds (3-10) by direct comparison of the slope in the linear region of the plots.
For the indirect detection of ^1O2, it is possible to determine the kq value considering that the production of ^1O2 is constant compare with the initial concentration of DMA. According to these, a pseudo first-order kinetic for this reaction is proposed (equations 2 to 5): […]
The conversion of DMA followed pseudo-first order kinetics with the different photosensitizers (see FIG. 14). From equation 5, it was possible to determine kobs and ^1O2.

[5] = ^1O2 quantum yield and lifetime, ^1O2 phosphorescence at 1270 nm (direct method); assay type: physicochemical
Method: The generation of singlet oxygen and its lifetime were determined from ^1O2 phosphorescence decay curves recorded at 1270 nm upon excitation with a 532 nm Nd:YAG laser. A total of 3 laser shots were applied to acquire a trace. […] Quantum yield of ^1O2 production (φΔ^D) were calculated comparing the intensity of ^1O2 phosphorescence at 1270 nm for the corresponding photosensitizer with that recorded for Rose Bengal (φΔ=0.54).^81

[6] = cited from earlier work; for abs λmax / em λmax / Φf (fluorescence quantum yield) / ε (extinction coefficient): acetonitrile, room temperature, from reference 31; for E00 (HOMO-LUMO gap): from reference 54 (1) or 31 (2)
[7] = acetonitrile, room temperature; from reference 31; cited from earlier work
[8] = cited from earlier work; for E^oB^+·/B (reversible oxidation potential): from reference 54 (1) or 31 (2)
[9] = from reference 54 (1) or 31 (2); cited from earlier work
[10] = from reference 54 (1) or 31 (2); cited from earlier work; remark: listed apart in the source
E. coli ATCC 25922 = experiment: Antibacterial photodynamic inactivation, regular vs hydrogen peroxide stressed bacteria (CFU counts); assay type: cell-based; details: in the dark; 7 with or without H2O2
Method: The microorganism used for this study is E. coli ATCC 25922. Stock cultures were preserved at −70° C. using glycerol 10% (v/v) as the cryoprotectant, and the strain was grown in Luria Bertania broth (LB). Bacterial culture was prepared inoculating a single colony from a pure culture. After overnight incubation at 37° C. for 18 h, the culture reached a density of approximately 1×10^9 CFU/mL and it was diluted to 10^6 CFU/mL.
At the end of the irradiation time, 100 μL aliquots were placed in 96 wells from each tube and serially diluted 10-fold in PBS to obtain dilutions of 10^1 to 10^4 fold, in addition to the original concentration, on agar plates to determine CFU. Viability counts were performed at 0 and 1 hour in either dark or light conditions from each dilution, 10 μL aliquots were plated on LB agar. Plates were streaked in triplicate and incubated for 18 h at 37° C. Each experiment was performed at least three times on different days.
To stress the cells we utilized hydrogen peroxide, known to stimulate ROS production in Gram-negative cells.^79,80 We incubated bacteria from the E. coli strain (10^6 colony forming units (CFU)/mL) with 500 nM hydrogen peroxide for 2 hours at 37° C. Following precipitation and resuspension of this bacteria in media with no H2O2, we added compound 7. In parallel, compound 7 was also added to bacteria that were not exposed to H2O2.

[11] = Intermolecular quenching of ^1O2 phosphorescence by chromanol rings; assay type: physicochemical; details: ^1O2 generated upon irradiation of compound 5, air equilibrated acetonitrile
Description: To test whether 7 is equally efficient at deactivating ^1O2 as α-tocopherol, we generated ^1O2 upon irradiation of compound 5 and monitored the ^1O2 phosphorescence lifetime in the presence of increasing amounts of either 7 or PMHC (an α-tocopherol analogue lacking the phytyl tail).

[12] = cited from earlier work; for overall singlet oxygen quenching rate constant kq: kq(physical)+kq(chemical), reference 74; for chemical quenching of ^1O2 / physical quenching of ^1O2: share of total quenching
[13] = reference value; cited from earlier work

## CC1=C(I)C(C)=[N+]2C1=C(COC(=O)C1(C)CCc3c(C)c(O)c(C)c(C)c3O1)c1c(C)c(I)c(C)n1[B-]2(F)F (racemic) [Compound 8, 8-((±)-6-Hydroxy-2,5,7,8-tetramethylchromane-2-carbonyloxy)-2,6-diiodo-methyl-1,3,5,7-tetramethylpyrromethene Fluoroborate]
[1]; 7 compared to reference 4, 8 compared to 5
  drop in φf caused by the trap segment: ca. 2 fold
[1]; acetonitrile, room temperature
  abs λmax: 552 nm
  em λmax: 576 nm
  Φf (fluorescence quantum yield): 0.009 ± 0.002
  ε (extinction coefficient): 63000 M⁻¹ cm⁻¹
[2]
  kdec (fluorescence decay rate constant): 555.6 ± 0.6 × 10^7 s^−1
  knr (non-radiative decay rate constant, (1−φf)×kdec): 551.0 ± 0.5 × 10^7 s^−1
  krad (radiative rate constant, φf×kdec): 5.0 ± 0.1 × 10^7 s^−1
[3]; 8 compared to its precursor 5
  increase in kT upon covalent attachment of the chromanol: 6 fold
[3]; Ar saturated acetonitrile
  kq (triplet quenching rate constant) Q = PMHC: 5.90 ± 0.09 × 10^8 M^−1s^−1
[3]; acetonitrile, air equilibrated
  kT (triplet decay rate constant) Air equilibrated: 4.55 ± 0.02 × 10^6 s^−1
[3]; acetonitrile, argon purged
  kT (triplet decay rate constant) Argon Purged: 9.16 ± 0.05 × 10^4 s^−1
[3]; acetonitrile, calculated with oxygen solubility 2.42 mM
  kq (triplet quenching rate constant) Q = ^3O2: 1.88 ± 0.02 × 10^9 M^−1s^−1
[4]
  ΦΔ^I (singlet oxygen quantum yield, indirect): 0.46 ± 0.03
[5]
  φΔ relative to control compound 5: ca. ½
[5]; ^1O2 phosphorescence at 1270 nm, air equilibrated acetonitrile
  ΦΔ^D (singlet oxygen quantum yield, direct): 0.57 ± 0.02
[5]; upon photosensitization, air equilibrated acetonitrile
  ^1O2 phosphorescence decay lifetime: 70 μs

## CC1=CC(C)=[N+]2C1=C(C)c1c(C)cc(C)n1[B-]2(F)F [Compound 1, 1,3,5,7,8-pentamethyl-Pyrromethene Fluoroborate]
[6]
  abs λmax: 491 nm
  em λmax: 498 nm
  Φf (fluorescence quantum yield): 0.81 ± 0.02
  ε (extinction coefficient): 97000 M⁻¹ cm⁻¹
  E00 (HOMO-LUMO gap): 2.53 eV
[7]
  kdec (fluorescence decay rate constant): 17.8 ± 0.1 × 10^7 s^−1
  knr (non-radiative decay rate constant): 3.3 ± 0.1 × 10^7 s^−1
  krad (radiative rate constant): 14.4 ± 0.1 × 10^7 s^−1
[8]
  E^oB^+·/B (reversible oxidation potential): 0.77
[9]
  εHOMO: −5.36 ± 0.01 eV
  εLUMO: −2.31 ± 0.05 eV
[10]
  ΔGeT (Singlet), Gibbs free energy for PeT: −0.26 eV

## CC(=O)OCC1=C2C(C)=CC(C)=[N+]2[B-](F)(F)n2c(C)cc(C)c21 [Compound 2, 8-Acetoxymethyl-1,3,5,7-tetramethyl Pyrromethene Fluoroborate]
[6]
  abs λmax: 515 nm
  em λmax: 530 nm
  Φf (fluorescence quantum yield): 0.87 ± 0.02
  ε (extinction coefficient): 81000 M⁻¹ cm⁻¹
  E00 (HOMO-LUMO gap): 2.38 eV
[7]
  kdec (fluorescence decay rate constant): 15.0 ± 0.2 × 10^7 s^−1
  knr (non-radiative decay rate constant): 2.0 ± 0.1 × 10^7 s^−1
  krad (radiative rate constant): 13.1 ± 0.2 × 10^7 s^−1
[8]; from reference 31
  E^opc (cathodic peak potential): −1.44
[8]
  E^oB^+·/B (reversible oxidation potential): 0.75
[9]
  εHOMO: −5.49 ± 0.01 eV
  εLUMO: −2.61 ± 0.05 eV
[10]
  ΔGeT (Singlet), Gibbs free energy for PeT: −0.24 eV

## OO [Compound H2O2, hydrogen peroxide, reference compound]
E. coli ATCC 25922
  colony forming units, dark controls: no effect in the CFU

## Cc1c(C)c2c(c(C)c1O)CCC(C)(C)O2 [PMHC, 2,2,5,7,8-pentamethyl-6-hydroxy-chroman]
[11]
  singlet oxygen quenching rate constant kq: 4e+08 M⁻¹ s⁻¹
[12]
  overall singlet oxygen quenching rate constant kq: 1.96e+08 M⁻¹ s⁻¹
  chemical quenching of ^1O2: 5%
  physical quenching of ^1O2: 95%

## O=C([O-])c1c(Cl)c(Cl)c(Cl)c(Cl)c1-c1c2cc(I)c(=O)c(I)c-2oc2c(I)c([O-])c(I)cc12.[Na+].[Na+] [Rose Bengal]
[13]
  φΔ of reference standard: 0.54

## Cc1c(C)c2c(c(C)c1O)CC[C@@](C)(CCC[C@H](C)CCC[C@H](C)CCCC(C)C)O2 [α-tocopherol]
[12]
  overall singlet oxygen quenching rate constant kq: 2.06e+08 M⁻¹ s⁻¹
  chemical quenching of ^1O2: 7%
  physical quenching of ^1O2: 93%
